In the Kinase Knowledgebase extract (Sharma et al. 2016):

Biological target: EGFR (mouse) (UniProt P00533)
Conditions: swiss 3t3 membrane

| Compound | IC50 [µM] |
| --- | --- |
| N#C/C(=C\c1c[nH]c2ccccc12)C(=O)c1ccc(O)c(O)c1 | 30 |
| N#CC(C#N)=C(N)/C(C#N)=C/c1c[nH]c2ccccc12 | > 300 |
| COc1ccc(OC)c2nc(Cl)c(-c3ccccc3)cc12 | > 30 |
